Consider one molecule from patent US20060100226A1, “2-Thiopyrimidinones as therapeutic agents” (priority 2004, published 2006).

pIC50: −log10 of the molar value.

In test [1] the target is T1, murine MEKK2 (mMEKK2) (Mus musculus, UniProt Q61083).
T1 sequence (Q61083 1-619): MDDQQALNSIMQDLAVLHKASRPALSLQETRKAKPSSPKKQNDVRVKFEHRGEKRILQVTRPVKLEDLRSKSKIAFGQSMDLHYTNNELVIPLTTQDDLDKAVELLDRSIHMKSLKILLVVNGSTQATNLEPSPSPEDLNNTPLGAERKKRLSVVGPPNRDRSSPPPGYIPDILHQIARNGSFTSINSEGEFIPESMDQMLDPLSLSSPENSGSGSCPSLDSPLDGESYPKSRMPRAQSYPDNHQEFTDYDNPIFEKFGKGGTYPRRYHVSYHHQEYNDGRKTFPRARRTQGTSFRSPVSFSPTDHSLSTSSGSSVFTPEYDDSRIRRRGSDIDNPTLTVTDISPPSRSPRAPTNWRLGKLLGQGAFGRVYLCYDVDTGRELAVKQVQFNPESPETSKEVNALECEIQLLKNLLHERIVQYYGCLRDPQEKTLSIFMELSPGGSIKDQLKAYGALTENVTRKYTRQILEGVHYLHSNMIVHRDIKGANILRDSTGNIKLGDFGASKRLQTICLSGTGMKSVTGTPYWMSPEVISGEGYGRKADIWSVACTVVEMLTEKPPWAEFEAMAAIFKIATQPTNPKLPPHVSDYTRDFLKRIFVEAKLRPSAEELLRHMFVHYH
The test can be described thus: TR-FRET kinase assay (mMEKK2/MBP). The following applies: substrate biotin MBP, 60 minutes at room temperature. It is filed as biochemical. The method, boiled down:
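mMEKK2 was preincubated 10 min with compound in pH 7.5 Hepes/MgCl2/DTT/vanadate buffer, then biotin-MBP, anti-phospho-MBP antibody and ATP (5 uM solution added) were added and the reaction ran 60 min at room temperature. After EDTA stop, europium anti-mouse IgG and Cy5-streptavidin were added and TR-FRET was read at 615/665 nm.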
(TR-FRET usually uses a lanthanide donor and a delayed reading to cut background.)

The target in test [2] is T1, murine MEKK2 (mMEKK2). The test can be described thus: MEKK2 PhosphoELISA (mMEKK2/MKK4). The format is biochemical. Conditions: substrate MKK4/SKK1 (unactive), ATP final 10 μM, O.D. 450 nm. From the text: Another useful method for assessing protein kinase inhibition, and specifically MEKK2 inhibition, of compounds of the invention involves the MEKK2 phospho-antibody enzyme-linked immunosorbent assay (PhosphoELISA). This screening panel, which involves relatively few steps, is a useful indicator of potential inhibitors of MEKK2. Reactions to murine MEKK2 are observed as optical density measurements at an absorbance of 450 nm. Inhibitory activities can be expressed in terms of IC50, where IC50 is the molar concentration of compound required to inhibit protein kinase binding by 50%.
A phospho-antibody enzyme-linked immunosorbent assay (PhosphoELISA) was used to screen potential inhibitors of MEKK2. The assay was performed as follows: Compounds to be tested were weighed and solubilized in DMSO (Sigma) to a stock concentration of 10 mM. Serial dilutions starting from 1 mM were prepared with additional DMSO. These dilutions were further diluted to 250 μM in kinase reaction buffer [20 mM Hepes pH 7.5, 5 mM MgCl2, 1 mM DTT (Dithiothreitol-Sigma), 1 mM NaVO4 (sodium vanadate- Sigma). A 25 μl aliquot of this solution was transferred to a glutathione coated 96-well microplate (Pierce). A stock aliquot containing 50-125 ng of murine MEKK2 (mMEKK2) was added to each well and incubated on the microplate for 10 minutes at room temperature. A 25 μl solution of MKK4/SKK1 (unactive) was diluted 1:200 in kinase assay buffer and added to the reaction plate followed by 50 μl of 25 μM ATP (adenosine triphosphate) to afford a final well concentration of 10 μM. The reaction was allowed to proceed for 60 minutes at room temperature before washing 3 times with wash buffer [100 mM phosphate pH 7.5, 0.05% TWEEN 20 (Sigma)]. A solution of anti-phospho MKK4/SEK1 antibody (Calbiochem) and biotin anti rabbit IgG (Jackson Immunoresearch) was diluted 1:2500 in kinase reaction buffer and added to the appropriate wells. The reaction was incubated for 60 minutes at room temperature. The microplate was washed 3 times with wash buffer and 100 ul of streptavidin horseradish peroxidase (HRP-Pierce) was added and incubated for 30 minutes at room temperature. The microplate was washed 3 times with wash buffer and 100 μl of TMB (3,3′,5,5′-tetramethylbenzidine-Sigma) was added. The assay was allowed to develop for 15-20 minutes then the reaction was stopped with the addition of 100 μl of 0.2 N sulfuric acid. The optical density (O.D.) of the plate was read on the Victor™ plate reader using the absorbance at 450 nm.

As usually defined, the pIC50 is the negative decadic logarithm of the IC50, by convention in mol/L. Low readings indicate a large IC50, high ones a small IC50.

`N#Cc1c(-c2cccc(N)c2)nc(SCc2cccc(NC(=O)c3ccc(Cl)c(Cl)c3)c2)[nH]c1=O` [Example 4n]: the pIC50 in test [1] and in test [2] was above 5.00 in each case.
